Values after ≈ are worked out from the molar mass of the structure shown. Like-named read-outs stand apart in the source and are kept apart here.
Experiments:
Streptococcus mutans [1] = assay: Minimum biofilm inhibitory concentration (MBIC), crystal violet staining; format: cell-based; conditions: S. mutans
Method: (§1) Group of examples No 4 - 6. Anti-biofilm activity of the substance or of the composition of substances was assessed from minimum biofilm inhibitory concentration (MBIC) and from the rate of biofilm formation on hydroxyapatite disks.
(§2) Reference strains Streptococcus mutans and S. Sobrinus were used as the bacterial models.
(§3) Example No 4. MBIC as the measure of the substance effect on the bacterial biofilm is equal to minimum concentration inhibiting the biofilm formation or disruption of already formed biofilm during 24 hour incubation.
(§4) MBIC of individual components of the composition, specifically, naringenin, guava leaf CO2 extract, and enzymes lysozyme and labiase can be determined according to the procedure: • 1) All stages of nutritive medium preparation, preparation and incubation of bacterial cultures in 96-well microtiter plates with the test composition of the substances added into nutritive medium were as described in Example 1. • 2) All controls for the culture growth, for purity of nutritive medium and for solvents were as described in Example 1. • 3) Incubate the plates at 37 °C for 24 ± 4 h without the use the orbital shaker. • 4) Stain the bacterial biofilm accumulated on bottom of the plate wells with crystal violet. For this purpose remove the planktonic culture from the plate wells after 24 h incubation and wash with two portions of phosphate-buffered saline (PBS, pH 7.4) to remove remaining planktonic culture. Then dry the plate for 12-15 hours. Add 100 µL of 0.5% crystal violet solution (Sigma-Aldrich, USA), dissolved in 96% ethanol followed by incubation for 20 minutes. After removal of crystal violet solution from the wells wash the plate with 3-4 portions of PBS. After drying add […] of 96% ethanol into the wells to elute the crystal violet, which has bound to the biofilm. • 5) Shake the plate on the orbital shaker for 2 minutes at 37 °C and then measure optical density (OD) at the wavelength of 550nm using multimodal microplate reader against the blank (the well, where the sterile medium LB was incubated and then exposed to all staining manipulations). Since the serial dilution method with 2-fold dilution steps is used for MBIC determination, the difference between the adjacent dilution is considered as non-significant, and MBIC is defined as the median value calculated for 5 independent biological replicates of the experiment. • 6) The following concentrations were tested: naringenin and guava leaf extract at concentrations 1.6, 0.8, 0.4, 0.2, 0.1, 0.05 mg/mL; lysozyme and labiase at concentrations 4.0, 2.0, 1.0, 0.5, 0.25, 0.125 mg/mL. Well-known antibacterial components were used as controls: chlorohexidine bigluconate at concentrations 64, 32, 16, 8, 4 µg/mL; zinc gluconate at concetrations 5.0, 2.5, 1.25, 0.6, 0.3, 0.15 mg/mL.

Streptococcus sobrinus [2] = assay: as above; format: cell-based; conditions: S. sobrinus
Method: as §1, §2, §3, §4

Streptococcus mutans [3] = assay: Minimum inhibitory concentration (MIC), serial two-fold dilution with resazurin test; format: cell-based; conditions: Streptococcus mutans, S. mutans
Streptococcus sobrinus [4] = assay: as above; format: cell-based; conditions: Streptococcus sobrinus, S. sobrinus
lysozyme = biological target: T1, lysozyme (Gallus gallus, UniProt P00698); assay: Lysozyme and naringenin compatibility: lysozyme activity by fall of optical density of Micrococcus lysodeicticus cells; format: biochemical; conditions: added to the buffered medium with lysozyme; 30, 60, 120 minutes at 37 degrees
T1 construct: Lysozyme used in all tests was 99% anhydrous lysozyme hydrochloride isolated from the egg yolks; from tissue; host or cells: eggs ('egg yolks' as printed)
T1 sequence (P00698 19-147): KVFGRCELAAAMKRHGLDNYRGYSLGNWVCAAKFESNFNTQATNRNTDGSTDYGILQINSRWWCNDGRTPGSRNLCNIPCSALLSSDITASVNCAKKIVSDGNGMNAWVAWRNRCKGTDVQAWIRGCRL
Method: Example ? 8. Assessment of lysozyme and naringenin compatibility Potential impact of naringenin on lysozyme activity was assessed through the measurement of lysozyme activity by the method described in the patent RU2294373C2. To determine the lysozyme activity the optical density values obtained for the control wells are subtracted from the optical density values obtained for the wells, which were incubated in the presence of lysozyme. The bacterial cells Micrococcus lysodeicticus in amount corresponding to the optical density 0.6 are mixed with the equal volume of buffer containing lysozyme, naringenin, guava leaf CO2 extract, while no lysozyme is added into the control well. Then the plate is incubated for 30, 60, 120 minutes at 37 degrees, and the optical density is measured. The fall of optical density indicates the lysozyme activity. Then the final density value is subtracted from the initial density value followed by normalization for incubation time and the enzyme concentration in accordance with the procedure described in RU2294373C2.

S. mutans = conditions: naringenin at concentration 200 µg/mL; cited from earlier work
[5] = 24 h at 37 °C, read-out: MIC value in individual replicate Replicate 1
[6] = 24 h at 37 °C, read-out: MIC value in individual replicate Replicate 2
[7] = 24 h at 37 °C, read-out: MIC value in individual replicate Replicate 3
[8] = 24 h at 37 °C, read-out: MIC value in individual replicate Replicate 4
[9] = 24 h at 37 °C, read-out: MIC value in individual replicate Replicate 5
[10] = median of 5 replicates, read-out: MIC Median value

Structure (SMILES): O=C1C[C@@H](c2ccc(O)cc2)Oc2cc(O)cc(O)c21 [Naringenin, naringenin]
- MBIC in indicvdual replicates Replicate 1 (Streptococcus mutans [1]; 24 h incubation): 0.8 mg/mL
- MBIC in indicvdual replicates Replicate 2 (Streptococcus mutans [1]; 24 h incubation): 0.8 mg/mL
- MBIC in indicvdual replicates Replicate 3 (Streptococcus mutans [1]; 24 h incubation): 0.8 mg/mL
- MBIC in indicvdual replicates Replicate 4 (Streptococcus mutans [1]; 24 h incubation): 0.4 mg/mL
- MBIC in indicvdual replicates Replicate 5 (Streptococcus mutans [1]; 24 h incubation): 0.8 mg/mL
- MBIC Median value (Streptococcus mutans [1]; median of 5 replicates): 0.8 mg/mL
- MBIC in indicvdual replicates Replicate 1 (Streptococcus sobrinus [2]; 24 h incubation): >1.6 mg/mL
- MBIC in indicvdual replicates Replicate 2 (Streptococcus sobrinus [2]; 24 h incubation): >1.6 mg/mL
- MBIC in indicvdual replicates Replicate 3 (Streptococcus sobrinus [2]; 24 h incubation): >1.6 mg/mL
- MBIC in indicvdual replicates Replicate 4 (Streptococcus sobrinus [2]; 24 h incubation): >1.6 mg/mL
- MBIC in indicvdual replicates Replicate 5 (Streptococcus sobrinus [2]; 24 h incubation): >1.6 mg/mL
- MBIC Median value (Streptococcus sobrinus [2]; median of 5 replicates): >1.6 mg/mL
- MIC (Streptococcus mutans [3]; [5]): > 1600 µg/mL
- MIC (Streptococcus mutans [3]; [6]): > 1600 µg/mL
- MIC (Streptococcus mutans [3]; [7]): 800 µg/mL (≈ 2.94 mM)
- MIC (Streptococcus mutans [3]; [8]): 400 µg/mL (≈ 1.47 mM)
- MIC (Streptococcus mutans [3]; [9]): 800 µg/mL (≈ 2.94 mM)
- MIC (Streptococcus mutans [3]; [10]): 800 µg/mL (≈ 2.94 mM)
- MIC (Streptococcus sobrinus [4]; [5]): > 1600 µg/mL
- MIC (Streptococcus sobrinus [4]; [6]): > 1600 µg/mL
- MIC (Streptococcus sobrinus [4]; [7]): > 1600 µg/mL
- MIC (Streptococcus sobrinus [4]; [8]): > 1600 µg/mL
- MIC (Streptococcus sobrinus [4]; [9]): > 1600 µg/mL
- MIC (Streptococcus sobrinus [4]; [10]): > 1600 µg/mL
- effect on lysozyme activity (lysozyme): neither affect lysozyme nor decrease the lysozyme activity
- biofilm formation (S. mutans): virtually completely inhibited
